Legend:
hGDHH454Y [1] = target: T1, hGDHH454Y (Homo sapiens, UniProt P00367, H507Y); assay: Trypsin degradation assay of hGDHH454Y (SDS-PAGE gel); type: biochemical
T1 construct: made in house; host or cells: E. coli BL21 codon plus (pET-30a)
Method: (§1) Trypsin (final concentration 20 μg/mL) were mixed with 1 mg/mL (final concentration) hGDH-H454Y or bovine-GDH or BSA, respectively, in Eppendorf (EP) tubes in a phosphate buffer (pH8; 10 mM Na3PO4, 50 mM K3PO4, 100 mM NH4HCO3, 0.1% Tween80 and 0.1% Tween). Then proteins were subjected to digestion in a wet chamber at 37 °C for 1 h. Each sample was analyzed by denaturing SDS-PAGE gel. All experiments were repeated 3 times.
(§2) 2.5 mg/mL bovine GDH (final concentration) or 2.5 mg/mL BSA proteins were mixed with various compounds (10 mM or 50 mM GTP; 0.05 mM or 5 mM EGCG) in EP tubes at room temperature for 1 h. To each tube, 20 μg/mL trypsin was added, and the reaction was carried out in a wet chamber at 37 °C for 1 h. Samples were analyzed by both denaturing SDS-PAGE gel and native-PAGE gel. All experiments were repeated 3 times.
(§3) The dried gel was placed in the imager and photographed after the bands were clear. The gray value of the bands was calculated on a uniform background using Image-J software (1.53a). The ratio of the gray value of the strips under each experimental condition to the gray value of the control strips was calculated, as it is the relative gray value of the strips under that experimental condition.

BSA = target: T2, BSA (Bos taurus, UniProt P02769); assay: Trypsin degradation assay of BSA (SDS-PAGE gel); type: biochemical, bovine
T2 construct: purchased Biosharp
Method: as §1, §2, §3

bovine GDH [2] = target: T3, bovine GDH (Bos taurus, UniProt P00366); assay: GDH inhibition assay (EZMTT detection); type: biochemical; conditions: for increase in IC50 on increasing GDH concentration by 8 times: 0.3 to 2.5 mg/mL GDH
T3 construct: purchased
Method: Since both GTP and EGCG are known allosteric GDH inhibitors, we tested their dose-dependent inhibition of different levels of GDH protein. […] EGCG inhibition of GDH is less affected by the GDH enzyme concentration.
[…] After 0.5 h pre-incubation, a mixture of Glu (10 mM final), NADP^+ ([…]), and the EZMTT detection reagent were added to each well, and the reaction was carried out at room temperature for 1 h before the absorbance measurement at 450 nm. To exclude assay artifacts, controls with no GDH were also used, and all experiments were carried out in triplicate and repeated 3 times.

bovine GDH [3] = target: T3, bovine GDH; assay: Trypsin degradation assay of bovine GDH (SDS-PAGE gel); type: biochemical; conditions: 20 μg/mL trypsin; for effect on trypsin digestion of Bo.GDH: low and high concentrations (GTP 10 or 50 mM; EGCG 0.05 or 5 mM), 37 °C 1 h
Method: as §1, §2, §3

bovine GDH hexamer = target: T4, bovine GDH hexamer (Bos taurus, UniProt P00366); assay: Native-PAGE gel analysis of interaction of EGCG, bovine GDH and trypsin; type: biochemical
T4 construct: purchased
Text: To further understand the mechanism of EGCG promoting GDH protein degradation, we investigated the interactions among EGCG, GDH, and trypsin by native gel analysis. Because the bovine GDH protein sequence shares 98% homology with the human GDH sequence and 100% homology similarity in the substrate and regulatory binding sites, we used bovine GDH as a substitute for wild-type human GDH in our studies. […] Taken together, the mechanism might be the following: binding of EGCG to hexametric GDH breaks down the hexamer into monomers, and further EGCG–trypsin complex facilitates the GDH degradation.
as §2, §3

hGDHH454Y [4] = target: T1, hGDHH454Y; assay: Biolayer interference-based binding assay (Ni-NTA biosensor), hGDHH454Y; conditions: His-tagged hGDHH454Y 20 μg/mL on Ni-NTA biosensor; read-out: estimated KD
Method: (§4) After immobilization of His-tagged wild-type GDH or hGDHH454Y (20 μg/mL) on a Ni-NTA biosensor, the probe was immersed in a series of dilutions of EGCG to measure binding.
(§5) The inhibitor/substrate binding assays were performed in 3 steps: step one is coating the Ni-NTA biosensor with the human wild type and the mutant GDH proteins (20 μg/mL) for 30 min; step two is dipping the coated individual sensor into a series dilution of substrates or inhibitors, such as EGCG (0, 1, 10, 100, 1000, 10000 μM; 10-fold dilution) or trypsin (0, 0.08, 0.25, 0.75, 2.25, 6.75 μM; 3-fold dilution) for 100 s, to obtain the on-rate (kon); step three is dipping to wash with phosphate-buffered saline (PBS) for 100 s. to measure the off-rate (koff). The KD was calculated by dividing […].

hGDHH454Y [5] = assay: as above; set-up: species or system human; conditions: KD hGDHH454Y versus wild-type
Method: as §4, §5

wild-type hGDH = target: T5, wild-type hGDH (Homo sapiens, UniProt P00367); assay: Biolayer interference-based binding assay (Ni-NTA biosensor), wild-type hGDH; conditions: His-tagged wild-type hGDH 20 μg/mL on Ni-NTA biosensor; read-out: estimated KD
T5 construct: confirming that these are the full-length wild-type hGDH; made in house; host or cells: E. coli BL21 (pET-30a)
Method: as §4, §5

[6] = high concentrations: 50 mM GTP, 5 mM EGCG
[7] = lower concentrations: GTP 10 mM, EGCG 0.05 mM
[8] = 20 μg/mL trypsin, 1 mg/mL protein, 1 h

T1 sequence (P00367 54-558 H507Y): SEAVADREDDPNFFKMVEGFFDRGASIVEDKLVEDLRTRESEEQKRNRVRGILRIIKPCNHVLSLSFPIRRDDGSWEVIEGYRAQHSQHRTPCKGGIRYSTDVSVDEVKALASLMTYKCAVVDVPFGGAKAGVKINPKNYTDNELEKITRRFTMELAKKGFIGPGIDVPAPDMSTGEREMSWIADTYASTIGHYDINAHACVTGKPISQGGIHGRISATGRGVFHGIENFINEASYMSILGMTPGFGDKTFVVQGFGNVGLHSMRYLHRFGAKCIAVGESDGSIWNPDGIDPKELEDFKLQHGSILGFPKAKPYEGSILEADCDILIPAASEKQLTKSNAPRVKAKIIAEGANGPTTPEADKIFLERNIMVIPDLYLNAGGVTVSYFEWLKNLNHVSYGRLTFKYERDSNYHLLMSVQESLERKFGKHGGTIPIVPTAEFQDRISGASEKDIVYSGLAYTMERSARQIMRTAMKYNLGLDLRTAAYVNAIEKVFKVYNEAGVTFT
T4 sequence (P00366 58-558): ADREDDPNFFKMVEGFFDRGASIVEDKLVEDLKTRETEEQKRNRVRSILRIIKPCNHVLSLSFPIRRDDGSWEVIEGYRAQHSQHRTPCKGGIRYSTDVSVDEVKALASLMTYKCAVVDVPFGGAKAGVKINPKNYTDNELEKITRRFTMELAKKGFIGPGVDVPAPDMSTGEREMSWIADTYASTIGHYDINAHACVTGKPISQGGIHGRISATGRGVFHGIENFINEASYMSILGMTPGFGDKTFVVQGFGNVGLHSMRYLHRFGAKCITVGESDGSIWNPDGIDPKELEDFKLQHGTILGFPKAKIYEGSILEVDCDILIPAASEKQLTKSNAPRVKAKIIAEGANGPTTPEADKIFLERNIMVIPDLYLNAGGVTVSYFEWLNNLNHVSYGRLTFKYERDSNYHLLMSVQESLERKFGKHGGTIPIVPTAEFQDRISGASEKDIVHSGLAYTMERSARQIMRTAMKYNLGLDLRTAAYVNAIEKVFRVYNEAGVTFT
T3 sequence (P00366 58-558): as above
T2 sequence (P02769 25-607): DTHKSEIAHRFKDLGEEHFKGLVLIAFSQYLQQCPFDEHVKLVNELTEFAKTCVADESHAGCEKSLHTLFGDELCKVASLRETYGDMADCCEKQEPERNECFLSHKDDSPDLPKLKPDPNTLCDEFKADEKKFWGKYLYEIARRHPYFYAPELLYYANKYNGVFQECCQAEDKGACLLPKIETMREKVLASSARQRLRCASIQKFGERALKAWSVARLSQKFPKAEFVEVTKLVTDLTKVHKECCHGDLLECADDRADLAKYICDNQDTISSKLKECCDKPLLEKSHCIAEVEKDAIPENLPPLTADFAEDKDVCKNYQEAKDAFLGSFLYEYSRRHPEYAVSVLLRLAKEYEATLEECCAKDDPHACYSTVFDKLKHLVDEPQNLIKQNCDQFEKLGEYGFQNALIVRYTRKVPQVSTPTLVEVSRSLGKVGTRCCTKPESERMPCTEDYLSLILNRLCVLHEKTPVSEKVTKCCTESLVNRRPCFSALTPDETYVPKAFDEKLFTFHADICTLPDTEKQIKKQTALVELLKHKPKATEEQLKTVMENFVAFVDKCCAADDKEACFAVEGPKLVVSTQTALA
T5 sequence (P00367 54-558): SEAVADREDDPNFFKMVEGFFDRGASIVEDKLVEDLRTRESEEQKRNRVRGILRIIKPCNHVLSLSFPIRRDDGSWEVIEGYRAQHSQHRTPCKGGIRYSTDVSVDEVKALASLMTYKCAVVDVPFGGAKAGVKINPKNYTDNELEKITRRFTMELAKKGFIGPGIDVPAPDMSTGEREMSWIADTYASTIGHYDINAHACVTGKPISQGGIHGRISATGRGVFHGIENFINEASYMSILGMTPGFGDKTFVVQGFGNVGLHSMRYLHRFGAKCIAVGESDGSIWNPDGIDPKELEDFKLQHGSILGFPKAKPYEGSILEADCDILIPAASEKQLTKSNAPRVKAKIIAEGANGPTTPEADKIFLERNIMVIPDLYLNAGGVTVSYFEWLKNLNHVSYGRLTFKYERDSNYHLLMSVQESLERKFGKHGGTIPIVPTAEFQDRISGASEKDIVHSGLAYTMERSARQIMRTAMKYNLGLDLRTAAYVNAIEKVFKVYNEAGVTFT

| Compound | effect on hGDHH454Y hydrolysis by trypsin (hGDHH454Y [1]; GTP up to 50 mM) | effect on trypsin digestion of BSA (BSA; [6]) | effect on trypsin digestion of BSA (BSA; [7]) | increase in IC50 on increasing GDH concentration by 8 times (bovine GDH [2]) | IC50 (bovine GDH [2]; bovine GDH 0.3 mg/mL) | IC50 (bovine GDH [2]; bovine GDH 2.5 mg/mL) | effect on trypsin digestion of Bo.GDH (bovine GDH [3]) | effect on hGDHH454Y hydrolysis by trypsin (hGDHH454Y [1]; 5 mM EGCG) | effect on hexamers of bovine GDH (bovine GDH hexamer; 5 mM EGCG) | monomeric GDH degradation by trypsin (bovine GDH hexamer; 5 mM EGCG added to GDH and 20 μg/mL trypsin) | Kd (hGDHH454Y [4]) | fold stronger affinity (KD) for wild-type GDH than for the H454Y mutant (hGDHH454Y [5]) | Kd (wild-type hGDH) | degradation by trypsin alone (hGDHH454Y [1]; [8]) | degradation by trypsin alone (BSA; [8]) | effect on hexamers of bovine GDH (bovine GDH hexamer; trypsin 20–500 μg/mL) | degradation by trypsin alone (bovine GDH [3]; 1 mg/mL protein, 1 h) |
| --- | --- | --- | --- | --- | --- | --- | --- | --- | --- | --- | --- | --- | --- | --- | --- | --- | --- |
| Nc1nc2c(ncn2[C@@H]2O[C@H](COP(=O)(O)OP(=O)(O)OP(=O)(O)O)[C@@H](O)[C@H]2O)c(=O)[nH]1 [GTP] | no effect | prevented BSA digestion | essentially no significant effect | 1000 fold | 16 µM | 16900 µM | prevented the trypsin digestion |  |  |  |  |  |  |  |  |  |  |
| O=C(O[C@@H]1Cc2c(O)cc(O)cc2O[C@@H]1c1cc(O)c(O)c(O)c1)c1cc(O)c(O)c(O)c1 [EGCG, (−)-cis-2-(3,4,5-trihydroxyphenyl)-3,4-dihydro-1(2H)-benzopyran-3,5,7-triol 3-gallate] |  | promoted BSA degradation | essentially no significant effect | 50 fold | 2.7 µM | 138 µM | greatly increased trypsin digestion in a dose-dependent manner | promote | converted to monomers | more monomeric GDH degradation was observed | 68 µM | 17 fold | 4.2 µM |  |  |  |  |
| Trypsin |  |  |  |  |  |  |  |  |  |  | 1500 µM | 10^9 fold | < 1e-06 µM | did not show observable degradation | significant hydrolysis | converted to monomers | significant hydrolysis |
